According to PMC6151383 (Molecules : A Journal of Synthetic Chemistry and Natural …, 2017):
≈ marks a conversion by molar mass, not a printed value. Read-outs that look alike come from different tables or passages of the source.

Key:
[1] = tested on: Klebsiella pneumoniae D 11750/08
[2] = tested on: Mycobacterium tuberculosis 331/88 (H37Rv); test: In vitro antimycobacterial MIC, M. tuberculosis; type: cell-based
M. kansasii 6509/96 = test: In vitro antimycobacterial MIC, M. kansasii clinical isolate; type: cell-based; conditions: Mycobacterium kansasii
[3] = tested on: Staphylococcus epidermidis H 6966/08; test: Antibacterial microdilution broth MIC, S. epidermidis; type: cell-based; conditions: Staphylococcus epidermidis
[4] = tested on: Enterococcus faecalis J 14365/08; test: Antibacterial microdilution broth MIC, E. faecalis; type: cell-based; conditions: Enterococcus faecalis, J14365/08; 48 h incubation; read-out: MIC EF 48 h
[5] = tested on: Staphylococcus aureus CCM 4516/08; test: Antibacterial microdilution broth MIC, S. aureus; type: cell-based; conditions: Staphylococcus aureus, CCM4516; 48 h incubation; read-out: MIC SA 48 h
[6] = tested on: ESBL-positive Klebsiella pneumoniae J 14368/08
[7] = tested on: Escherichia coli CCM 4517; test: Antibacterial microdilution broth MIC, E. coli; type: cell-based; conditions: Escherichia coli, CCM4517; 48 h incubation; read-out: MIC EC 48 h
[8] = tested on: Mycobacterium avium 330/88; test: In vitro antimycobacterial MIC, M. avium; type: cell-based
Candida sp. = test: Selectivity index for Candida sp. (IC50 HepG2/MIC); type: cell-based; conditions: all Candida species
[9] = tested on: Pseudomonas aeruginosa CCM 1961; test: Antibacterial microdilution broth MIC, P. aeruginosa; type: cell-based; conditions: Pseudomonas aeruginosa, CCM1961; 48 h incubation; read-out: MIC PA 48 h
[10] = tested on: Mycobacterium kansasii 235/80; test: In vitro antimycobacterial MIC, M. kansasii 235/80; type: cell-based
[11] = tested on: Trichophyton interdigitale 445; test: Antifungal microdilution broth MIC, T. interdigitale; type: cell-based; conditions: Trichophyton interdigitale; for SI for TI: SI = IC50 (HepG2)/MIC; for MIC: 445
[12] = tested on: Aspergillus fumigatus 231; test: Antifungal microdilution broth MIC, A. fumigatus; type: cell-based; conditions: Aspergillus fumigatus, 231; 48 h incubation; read-out: MIC AF 48 h
Trichosporon asahii 1188 = test: Antifungal microdilution broth MIC, T. asahii; type: cell-based; conditions: Trichosporon asahii, 1188; 48 h incubation; read-out: MIC TA 48 h
[13] = tested on: Lichtheimia corymbifera 272; test: Antifungal microdilution broth MIC, L. corymbifera; type: cell-based; conditions: Lichtheimia corymbifera, 272; 48 h incubation; read-out: MIC LC 48 h
Candida tropicalis 156 = test: Antifungal microdilution broth MIC, C. tropicalis; type: cell-based; conditions: Candida tropicalis, 156; 48 h incubation; read-out: MIC CT 48 h
Candida krusei E28 = test: Antifungal microdilution broth MIC, C. krusei; type: cell-based; conditions: Pichia kudriavzevii, E28; 48 h incubation; read-out: MIC CK 48 h
Candida glabrata 20/I = test: Antifungal microdilution broth MIC, C. glabrata; type: cell-based; conditions: Nakaseomyces glabratus, 48 h incubation, read-out: MIC CG 48 h
[14] = tested on: Candida albicans ATCC 44859; test: Antifungal microdilution broth MIC, C. albicans; type: cell-based; conditions: ATCC44859, 48 h incubation, read-out: MIC CA 48 h
[15] = 336 h, 14 d incubation, read-out: MIC Mtb. 331/88 14 d
[16] = 504 h, 21 d incubation, read-out: MIC Mtb. 331/88 21 d
[17] = 6509/96, 168 h, 7 d incubation, read-out: MIC M. kansasii 6509/96 7 d
[18] = 6509/96, 336 h, 14 d incubation, read-out: MIC M. kansasii 6509/96 14 d
[19] = 6509/96, 504 h, 21 d incubation, read-out: MIC M. kansasii 6509/96 21 d
[20] = H6966/08, 48 h incubation, read-out: MIC SE 48 h
[21] = 330/88, 336 h, 14 d incubation, read-out: MIC M. avium 330/88 14 d
[22] = 330/88, 504 h, 21 d incubation, read-out: MIC M. avium 330/88 21 d
[23] = 235/80, 168 h, 7 d incubation, read-out: MIC M. kansasii 235/80 7 d
[24] = 235/80, 336 h, 14 d incubation, read-out: MIC M. kansasii 235/80 14 d
[25] = 235/80, 504 h, 21 d incubation, read-out: MIC M. kansasii 235/80 21 d
[26] = 72 h incubation, read-out: MIC TI 72 h
[27] = 120 h incubation, read-out: MIC TI 120 h

Row | SMILES | MIC KP 24 h [1] | MIC KP 48 h [1] | MIC [2, 15] | MIC [2, 16] | MIC (M. kansasii 6509/96; [17]) | MIC (M. kansasii 6509/96; [18]) | MIC (M. kansasii 6509/96; [19]) | MIC [4] | MIC [5] | MIC KP-E 24 h [6] | MIC KP-E 48 h [6] | MIC [7] | MIC [8, 21] | MIC [8, 22] | SI for Candida sp. (Candida sp.) | MIC [9] | MIC [10, 23] | MIC [10, 24] | MIC [10, 25] | SI for TI [11] | further results
1 | Nc1ccc(S(=O)(=O)Nc2ncccn2)cc1 [SDZ 1, sulfadiazine, reference compound] | >500 µM | >500 µM | 32 µM (≈ 8.01 µg/mL) | 62.5 µM (≈ 15.6 µg/mL) | 8 µM (≈ 2 µg/mL) | 8 µM (≈ 2 µg/mL) | 8 µM (≈ 2 µg/mL) | > 500 µM | > 500 µM | >500 µM | >500 µM | > 500 µM | 62.5 µM (≈ 15.6 µg/mL) | 62.5 µM (≈ 15.6 µg/mL) | inactive | > 500 µM | 16 µM (≈ 4 µg/mL) | 16 µM (≈ 4 µg/mL) | 32 µM (≈ 8.01 µg/mL) | inactive | MIC [3, 20]: > 500 µM
2 | Cc1ccc(O)c(C=Nc2ccc(S(=O)(=O)Nc3ncccn3)cc2)c1 [Compound 2g, 4-[(2-Hydroxy-5-methylbenzylidene)amino]-N-(pyrimidin-2-yl)benzenesulfonamide] | >250 µM | >250 µM | 125 µM (≈ 46.1 µg/mL) | 125 µM (≈ 46.1 µg/mL) | 62.5 µM (≈ 23 µg/mL) | 62.5 µM (≈ 23 µg/mL) | 125 µM (≈ 46.1 µg/mL) | > 250 µM | > 250 µM | >250 µM | >250 µM | > 250 µM | 500 µM (≈ 184 µg/mL) | 1000 µM (≈ 368 µg/mL) | inactive | > 250 µM | 125 µM (≈ 46.1 µg/mL) | 125 µM (≈ 46.1 µg/mL) | 250 µM (≈ 92.1 µg/mL) | inactive | MIC ([3]; H6966/08, 24 h, read-out: MIC SE 24 h): 125 µM (≈ 46.1 µg/mL); MIC ([3]; H6966/08, 48 h, read-out: MIC SE 48 h): 125 µM (≈ 46.1 µg/mL); MIC [12]: > 500 µM; MIC (Trichosporon asahii 1188): > 500 µM; MIC [13]: > 500 µM; MIC (Candida tropicalis 156): > 500 µM; MIC (Candida krusei E28): > 500 µM; MIC (Candida glabrata 20/I): > 500 µM; MIC [14]: > 500 µM; MIC [11, 26]: > 500 µM; MIC [11, 27]: > 500 µM
3 | O=S(=O)(Nc1ncccn1)c1ccc(N=Cc2c(O)cccc2Cl)cc1 [Compound 2k, 4-[(2-Chloro-6-hydroxybenzylidene)amino]-N-(pyrimidin-2-yl)benzenesulfonamide] | >250 µM | >250 µM | 125 µM (≈ 48.6 µg/mL) | 125 µM (≈ 48.6 µg/mL) | 62.5 µM (≈ 24.3 µg/mL) | 125 µM (≈ 48.6 µg/mL) | 125 µM (≈ 48.6 µg/mL) | > 250 µM | > 250 µM | >250 µM | >250 µM | > 250 µM | 250 µM (≈ 97.2 µg/mL) | 250 µM (≈ 97.2 µg/mL) | inactive | > 250 µM | 62.5 µM (≈ 24.3 µg/mL) | 125 µM (≈ 48.6 µg/mL) | 250 µM (≈ 97.2 µg/mL) | inactive | MIC [3, 20]: > 250 µM; MIC [12]: > 250 µM; MIC (Trichosporon asahii 1188): > 250 µM; MIC [13]: > 250 µM; MIC (Candida tropicalis 156): > 250 µM; MIC (Candida krusei E28): > 250 µM; MIC (Candida glabrata 20/I): > 250 µM; MIC [14]: > 250 µM; MIC [11, 26]: > 250 µM; MIC [11, 27]: > 250 µM
